# Reference: patent US12084472B2 (Ardelyx, Inc., priority 2015, dated 2024)
# Target: T1, human TGR5 (Homo sapiens, UniProt Q8TDU6)
# T1 construct: expressed in transfected cells; host or cells: HEK293
# T1 sequence (Q8TDU6 1-330): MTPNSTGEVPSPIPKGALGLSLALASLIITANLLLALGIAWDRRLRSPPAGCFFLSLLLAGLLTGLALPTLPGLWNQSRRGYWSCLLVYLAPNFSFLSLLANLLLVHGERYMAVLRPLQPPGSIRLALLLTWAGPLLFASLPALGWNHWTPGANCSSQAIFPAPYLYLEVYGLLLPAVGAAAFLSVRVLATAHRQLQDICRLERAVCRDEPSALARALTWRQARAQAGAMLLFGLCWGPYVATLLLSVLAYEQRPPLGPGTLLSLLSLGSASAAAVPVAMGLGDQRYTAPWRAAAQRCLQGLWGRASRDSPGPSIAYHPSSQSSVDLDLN
# Assay: Cell-based TGR5 assay (cAMP generation, HTRF)
# Conditions: HEK293 cells stably transfected with human TGR5; cAMP by HTRF; 30 minutes at 37° C.; read-out: pEC50 Human TGR5 (converted)
# Summary of the method: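 Read-out was HTRF detection of cAMP, converted to concentration via a standard curve and fitted (3-parameter logistic) for pEC50 and maximal response. Agonist stimulation used HEK293 cells stably transfected with human TGR5, incubated 30 min at 37° C in IBMX-containing buffer at 0.05 nM to 10 μM compound.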
row,SMILES,EC50 [nM]
1,"O=C(NCCCN1CCN(S(=O)(=O)c2ccc(Cl)c(COC3(c4cnccc4-c4ccccc4OC4CC4)CC3)c2)CC1)NC[C@H](O)[C@@H](O)[C@H](O)[C@H](O)CO [Compound I-423, 1-(3-{4-[4-chloro-3-({1-[4-(2-cyclopropoxyphenyl)pyridin-3-yl]cyclopropoxy}methyl)benzenesulfonyl]piperazin-1-yl}propyl)-3-[(2S,3R,4R,5R)-2,3,4,5,6-pentahydroxyhexyl]urea]",126 to 1000
2,"CC(=O)NCCCCN(CCCCSc1ccc(Cl)c(COC2(c3cnccc3-c3ccccc3OC3CC3)CC2)c1)C(=O)[C@@H](O)[C@@H](O)[C@H](O)[C@@H](O)CO [Compound I-568, (2S,3S,4R,5S)-N-(4-{[4-chloro-3-({1-[4-(2-cyclopropoxyphenyl)pyridin-3-yl]cyclopropoxy}methyl)phenyl]sulfanyl}butyl)-N-(4-acetamidobutyl)-2,3,4,5,6-pentahydroxyhexanamide]",< 100
3,"CC(CCCC(=O)N(CCS(=O)(=O)N(C)C)C[C@H](O)[C@@H](O)[C@H](O)[C@H](O)CO)c1ccc(Cl)c(CNC2(c3cnccc3-c3ccccc3OC3CC3)CC2)c1 (stereo partly drawn) [Compound I-348, 5-{4-chloro-3-[({1-[4-(2-cyclopropoxyphenyl)pyridin-3-yl]cyclopropyl}amino)methyl]phenyl}-N-[2-(dimethylsulfamoyl)ethyl]-N-[(2S,3R,4R,5R)-2,3,4,5,6-pentahydroxyhexyl]hexanamide]",< 100
4,"CN(C[C@H](O)[C@@H](O)[C@H](O)[C@H](O)CO)C(=O)c1ccc(CSc2ccc(Cl)c(COC3(c4cnccc4-c4ccccc4OC4CC4)CC3)c2)cc1 [Compound I-685, 4-({[4-chloro-3-({1-[4-(2-cyclopropoxyphenyl)pyridin-3-yl]cyclopropoxy}methyl)phenyl]sulfanyl}methyl)-N-methyl-N-[(2S,3R,4R,5R)-2,3,4,5,6-pentahydroxyhexyl]benzamide]",< 100
5,"CCOC(=O)NCCN(CCCSc1ccc(Cl)c(CNC2(c3cnccc3-c3ccccc3OC3CC3)CC2)c1)C(=O)[C@@H](O)[C@@H](O)[C@H](O)[C@@H](O)CO [Compound I-587, ethyl N-{2-[(2S,3S,4R,5S)-N-[3-({4-chloro-3-[({1-[4-(2-cyclopropoxyphenyl)pyridin-3-yl]cyclopropyl}amino)methyl]phenyl}sulfanyl)propyl]-2,3,4,5,6-pentahydroxyhexanamido]ethyl}carbamate]",126 to 1000
6,"CCNC(=O)[C@@H](CCCCNS(=O)(=O)c1ccc(Cl)c(COC2(c3cnccc3-c3ccccc3OC3CC3)CC2)c1)NC(=O)NC[C@H](O)[C@@H](O)[C@H](O)[C@H](O)CO [Compound I-482, (2R)-6-[4-chloro-3-({1-[4-(2-cyclopropoxyphenyl)pyridin-3-yl]cyclopropoxy}methyl)benzenesulfonamido]-N-ethyl-2-({[(2S,3R,4R,5R)-2,3,4,5,6-pentahydroxyhexyl]carbamoyl}amino)hexanamide]",126 to 1000
7,"NC(=O)CN(CCCCc1cc(Cl)c(COC2(c3cnccc3-c3ccccc3OC3CC3)CC2)cc1Cl)C(=O)[C@@H](O)[C@@H](O)[C@H](O)[C@@H](O)CO [Compound I-82, (2S,3S,4R,5S)-N-(carbamoylmethyl)-N-{4-[2,5-dichloro-4-({1-[4-(2-cyclopropoxyphenyl)pyridin-3-yl]cyclopropoxy}methyl)phenyl]butyl}-2,3,4,5,6-pentahydroxyhexanamide]",< 100
8,"CCN(C[C@H](O)[C@@H](O)[C@H](O)[C@H](O)CO)C(=O)CCCCc1cc(Cl)c(COC2(c3cnccc3-c3ccccc3OC3CC3)CC2)cc1Cl [Compound I-108, 5-[2,5-dichloro-4-({1-[4-(2-cyclopropoxyphenyl)pyridin-3-yl]cyclopropoxy}methyl)phenyl]-N-ethyl-N-[(2S,3R,4R,5R)-2,3,4,5,6-pentahydroxyhexyl]pentanamide]",< 100
9,"CC(CCCC(=O)NC[C@H](O)[C@@H](O)[C@H](O)[C@H](O)CO)c1cc(Cl)c(CNC2(c3cnccc3-c3ccccc3OC3CC3)CC2)cc1Cl (stereo partly drawn) [Compound I-260, 5-[2,5-dichloro-4-[([1-[4-(2-cyclopropoxyphenyl)pyridin-3-yl]cyclopropyl]amino)methyl]phenyl]-N-[(2S,3R,4R,5R)-2,3,4,5,6-pentahydroxyhexyl]hexanamide]",< 100
10,"Cc1ccc(SCCCC(=O)N(C)C[C@H](O)[C@@H](O)[C@H](O)[C@H](O)CO)nc1CNC1(c2cnccc2-c2ccccc2OC2CC2)CC1 [Compound I-654, 4-({6-[({1-[4-(2-cyclopropoxyphenyl)pyridin-3-yl]cyclopropyl}amino)methyl]-5-methylpyridin-2-yl}sulfanyl)-N-methyl-N-[(2S,3R,4R,5R)-2,3,4,5,6-pentahydroxyhexyl]butanamide]",1260 to 10000
11,"CN(CCCCNC(=O)NC[C@H](O)[C@@H](O)[C@H](O)[C@H](O)CO)S(=O)(=O)c1cc(CNC2(c3cnccc3-c3ccccc3OC3CC3)CC2)c(Cl)cc1Cl [Compound I-392, 1-[4-(N-methyl[2,4-dichloro-5-[([1-[4-(2-cyclopropoxyphenyl)pyridin-3-yl]cyclopropyl]amino)methyl]benzene]sulfonamido)butyl]-3-[(2S,3R,4R,5R)-2,3,4,5,6-pentahydroxyhexyl]urea]",< 100
12,"O=C(NC[C@H](O)[C@@H](O)[C@H](O)[C@H](O)CO)C1CCN(S(=O)(=O)c2ccc(Cl)c(COC3(c4cnccc4-c4ccccc4OC4CC4)CC3)c2)CC1 [Compound I-437, 1-[4-chloro-3-({1-[4-(2-cyclopropoxyphenyl)pyridin-3-yl]cyclopropoxy}methyl)benzenesulfonyl]-N-[(2S,3R,4R,5R)-2,3,4,5,6-pentahydroxyhexyl]piperidine-4-carboxamide]",< 100
13,"Cc1cc(COC2(c3cnccc3-c3ccccc3OC3CC3)CC2)c(Cl)cc1CCCCNC(=O)N1CCN(C[C@H](O)[C@@H](O)[C@@H](O)[C@H](O)CO)CC1 [Compound I-114, N-{4-[5-chloro-4-({1-[4-(2-cyclopropoxyphenyl)pyridin-3-yl]cyclopropoxy}methyl)-2-methylphenyl]butyl}-4-[(2S,3R,4S,5R)-2,3,4,5,6-pentahydroxyhexyl]piperazine-1-carboxamide]",< 100

# More lines, now with the values ahead:
row,EC50 [nM],SMILES
1,< 100,"CCOC(=O)NCCCN(CCCCSc1ccc(Cl)c(COC2(c3cnccc3-c3ccccc3OC3CC3)CC2)c1)C(=O)[C@@H](O)[C@@H](O)[C@H](O)[C@@H](O)CO [Compound I-578, ethyl N-{3-[(2S,3S,4R,5S)-N-(4-{[4-chloro-3-({1-[4-(2-cyclopropoxyphenyl)pyridin-3-yl]cyclopropoxy}methyl)phenyl]sulfanyl}butyl)-2,3,4,5,6-pentahydroxyhexanamido]propyl}carbamate]"
2,126 to 1000,"Clc1ccc(Cl)c(CNC2(c3cnccc3-c3ccccc3)CC2)c1 [Compound I-14, N-[(2,5-dichlorophenyl)methyl]-1-(4-phenylpyridin-3-yl)cyclopropan-1-amine]"
3,126 to 1000,"O=C(NCCN1CCN(S(=O)(=O)c2ccc(Cl)c(COC3(c4cnccc4-c4ccccc4OC4CC4)CC3)c2)CC1)NC[C@H](O)[C@@H](O)[C@H](O)[C@H](O)CO [Compound I-425, 1-(2-{4-[4-chloro-3-({1-[4-(2-cyclopropoxyphenyl)pyridin-3-yl]cyclopropoxy}methyl)benzenesulfonyl]piperazin-1-yl}ethyl)-3-[(2S,3R,4R,5R)-2,3,4,5,6-pentahydroxyhexyl]urea]"
4,< 100,"CN(C)C[C@H](NC(=O)CCCCc1cc(Cl)c(COC2(c3cnccc3-c3ccccc3OC3CC3)CC2)cc1Cl)[C@@H](O)[C@H](O)[C@H](O)CO [Compound I-165, 5-[2,5-dichloro-4-({1-[4-(2-cyclopropoxyphenyl)pyridin-3-yl]cyclopropoxy}methyl)phenyl]-N-[(2S,3R,4S,5R)-1-(dimethylamino)-3,4,5,6-tetrahydroxyhexan-2-yl]pentanamide]"
5,< 100,"NC(=O)CCN(C[C@H](O)[C@@H](O)[C@H](O)[C@H](O)CO)C(=O)CCCCc1cc(Cl)c(COC2(c3cnccc3-c3ccccc3OC3CC3)CC2)cc1Cl [Compound I-223, N-(2-carbamoylethyl)-5-[2,5-dichloro-4-({1-[4-(2-cyclopropoxyphenyl)pyridin-3-yl]cyclopropoxy}methyl)phenyl]-N-[(2S,3R,4R,5R)-2,3,4,5,6-pentahydroxyhexyl]pentanamide]"
6,< 100,"CCOC(=O)NCCCN(CCCCSc1ccc(Cl)c(CNC2(c3cnccc3-c3ccccc3OC3CC3)CC2)c1)C(=O)[C@@H](O)[C@@H](O)[C@H](O)[C@@H](O)CO [Compound I-574, ethyl N-{3-[(2S,3S,4R,5S)-N-[4-({4-chloro-3-[({1-[4-(2-cyclopropoxyphenyl)pyridin-3-yl]cyclopropyl}amino)methyl]phenyl}sulfanyl)butyl]-2,3,4,5,6-pentahydroxyhexanamido]propyl}carbamate]"
7,1260 to 10000,"CC(CCCC(=O)NCCN1CCN(C(=O)NC[C@H](O)[C@@H](O)[C@H](O)[C@H](O)CO)CC1)c1ccc(Cl)c(CN(C(=O)NC[C@H](O)[C@@H](O)[C@H](O)[C@H](O)CO)C2(c3cnccc3-c3ccccc3OC3CC3)CC2)c1 (stereo partly drawn) [Compound I-372, 4-[2-(5-{4-chloro-3-[(1-{l-[4-(2-cyclopropoxyphenyl)pyridin-3-yl]cyclopropyl}{[(2S,3R,4R,5R)-2,3,4,5,6-pentahydroxyhexyl]carbamoyl}amino)methyl]phenyl}hexanamido)ethyl]-N-[(2S,3R,4R,5R)-2,3,4,5,6-pentahydroxyhexyl]piperazine-1-carboxamide]"
